The target in assay [1] is T1, rat 5-HT7a receptor (Rattus norvegicus, UniProt P32305).
T1 construct: expressed in transfected cells
The assay can be described thus: Adenylyl cyclase assay (5-CT-stimulated cAMP) in r5-HT7a/HEK-293 cells. The assay is classed as cell-based. On the procedure: 2. Effect on Adenylyl Cyclase Activity
In vitro functional properties of the compounds described in this invention were evaluated in an adenylyl cyclase assay. HEK-293 cells stably tranfected with the rat 5-HT7a receptor were plated into 96-well plates. Cells were washed with 200 μL DNEM/F12 and incubated for 10 min with 80 μL of 2 mM 3-isobutyl-1-methylxanthine. Compounds (10 μL) were added for another 10 min. Subsequently, 5-CT (10 μL) was added. After 20 min the incubation was stopped by the addition of 20 μL of 0.5 N HCl. Plates were incubated at 4° C. for 30 min. Twenty μL of the supernatant were assayed for cAMP content with a commercially available kit (Perkin Elmer) using ^125I-cAMP. Sigmoidal curves of best fit were calculated by nonlinear regression analysis using GrapPad Prism.
5-CT-stimulated adenylyl cyclase activity in r5-HT7a/HEK-293 cells was inhibited by Example 59 with an estimated pKB˜8 in good agreement with the Ki value determined from [^3H]5-CT binding studies.

The target in assay [2] is T2, human recombinant 5-HT2C receptor (Homo sapiens, UniProt P28335).
T2 sequence (P28335 33-458): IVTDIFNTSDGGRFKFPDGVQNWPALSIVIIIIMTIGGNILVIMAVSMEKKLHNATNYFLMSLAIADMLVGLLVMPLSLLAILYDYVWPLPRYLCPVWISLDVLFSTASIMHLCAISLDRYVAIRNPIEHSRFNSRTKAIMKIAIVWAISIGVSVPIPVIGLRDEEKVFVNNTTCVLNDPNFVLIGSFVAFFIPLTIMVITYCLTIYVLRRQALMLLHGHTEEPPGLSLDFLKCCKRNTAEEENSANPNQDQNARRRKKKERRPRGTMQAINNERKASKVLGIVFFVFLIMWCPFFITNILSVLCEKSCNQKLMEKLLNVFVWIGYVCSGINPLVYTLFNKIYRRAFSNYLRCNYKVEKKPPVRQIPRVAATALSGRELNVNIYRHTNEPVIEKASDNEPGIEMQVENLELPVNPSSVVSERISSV
The assay can be described thus: 5-HT2C receptor radioligand binding ([3H]mesulergine, CHO membranes).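 Note: competitive displacement of the tritiated ligand, using membranes from CHO cells stably transfected with the human receptor.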
Experimental: (§1) Affinity for 5HT2 Receptor Binding Sites
(§2) Receptor binding was performed using the human recombinant 5-HT2A (GB: X57830), 5-HT2B (GB: Z36748) and 5-HT2c (GB: M81778) receptors. The affinity of the compounds for the 3 different human 5-HT2 receptor subtypes was evaluated by competitive radioligand binding assays using [^3H]ketanserin (h5-HT2A) or [^3H]mesulergine (h5-HT2B and h5-HT2c). The assays were performed on membranes prepared from NIH3T3 stably transfected with h5-HT2A or CHO stably transfected with h5-HT2B and h5-HT2C.

The target of assay [3] is T1, rat 5-HT7a receptor. The assay is described as follows: 5-HT7 receptor radioligand binding ([3H]5-CT, membranes of transfected HEK-293 cells). As to conditions: rat 5-HT7a in HEK-293 membranes, 1 nM [3H]5-CT.
The target of the next assay is 5-HT2A receptor (UniProt P28223). The assay is described as follows: 5-HT2A receptor radioligand binding ([3H]ketanserin).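 Note: competitive displacement binding on membranes, either from rat cerebral cortex or from NIH3T3 cells stably expressing human 5-HT2A.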 The following applies: read-out: Ki 5-HT2A, table does not say whether rat cortex or human recombinant (NIH3T3) receptor.
Assay [4] deals with human recombinant 5-HT2B receptor (Homo sapiens, UniProt P41595). The assay can be described thus: 5-HT2B receptor radioligand binding ([3H]mesulergine, CHO membranes).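 Note: competitive displacement binding on membranes of CHO cells stably expressing the receptor.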
human recombinant 5-HT2B receptor, sequence (P41595 whole entry): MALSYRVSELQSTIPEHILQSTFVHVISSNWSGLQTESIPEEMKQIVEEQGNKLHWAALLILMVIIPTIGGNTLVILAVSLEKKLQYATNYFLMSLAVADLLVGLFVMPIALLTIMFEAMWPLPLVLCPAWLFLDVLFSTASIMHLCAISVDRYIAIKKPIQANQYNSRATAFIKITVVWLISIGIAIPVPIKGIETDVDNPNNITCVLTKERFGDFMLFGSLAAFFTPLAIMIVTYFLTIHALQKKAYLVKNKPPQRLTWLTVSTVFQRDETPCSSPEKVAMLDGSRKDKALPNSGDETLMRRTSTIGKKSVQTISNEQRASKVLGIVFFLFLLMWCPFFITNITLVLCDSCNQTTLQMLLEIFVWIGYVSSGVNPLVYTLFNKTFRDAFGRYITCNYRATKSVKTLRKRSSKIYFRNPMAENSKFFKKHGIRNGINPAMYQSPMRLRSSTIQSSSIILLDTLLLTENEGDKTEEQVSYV
Experimental: as §1, §2

SMILES strings stand for the structures. Read-outs that look alike come from different tables or passages of the source.

T1 sequence (P32305 whole entry): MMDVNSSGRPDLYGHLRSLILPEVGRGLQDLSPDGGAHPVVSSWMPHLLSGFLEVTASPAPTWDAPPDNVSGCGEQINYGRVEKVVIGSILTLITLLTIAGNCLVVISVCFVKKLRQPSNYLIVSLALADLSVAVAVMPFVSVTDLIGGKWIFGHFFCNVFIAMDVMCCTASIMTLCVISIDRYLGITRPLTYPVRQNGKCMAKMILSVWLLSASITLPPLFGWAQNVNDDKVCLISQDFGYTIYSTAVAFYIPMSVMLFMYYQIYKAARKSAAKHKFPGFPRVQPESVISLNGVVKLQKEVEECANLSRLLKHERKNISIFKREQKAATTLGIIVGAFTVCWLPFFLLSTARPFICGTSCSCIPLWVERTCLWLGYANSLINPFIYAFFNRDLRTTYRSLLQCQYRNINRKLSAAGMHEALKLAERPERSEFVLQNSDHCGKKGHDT
Experimental for 5-HT2A receptor: The affinity of the compounds for the rat 5-HT2A receptor was evaluated by competitive radioligand binding assay using [^3H]ketanserine as the radioligand. The assay was performed on membranes from rat cortex as previously described (Schotte, A. et al., Psychopharmacology (1996) 124: 57-73). Briefly, brain tissue (rat cortex) was homogenized in 20 volumes per wet weight tissue of Tris-HCl buffer (50 mM, pH 7.4). The total membrane fraction was collected by centrifugation and washed by subsequent centrifugation runs (25 min at 25,000 g at 4° C.). Membranes were re-suspended in Tris-HCl buffer (50 mM, pH 7.4) containing 1 nM [^3H]ketanserin. Non-specific binding was estimated in the presence of 10 μM risperidone.

For `CN1CCc2c(c(-c3ccc(Cl)cc3)cn2Cc2ccccc2)C1` [Example 38, 1-Benzyl-3-(4-chloro-phenyl)-5-methyl-4,5,6,7-tetrahydro-1H-pyrrolo[3,2-c]pyridine], the Kb at rat 5-HT7a receptor [1] (printed in the Ki 5-HT7 column of Table 1, read-out: pKb 5-HT7 (converted)) is 0.0158 µM.
Turning to `Clc1ccc(-c2nn(Cc3ccccc3)c3c2CCNCC3)cc1` [Example 59, 1-Benzyl-3-(4-chloro-phenyl)-1,4,5,6,7,8-hexahydro-1,2,6-triaza-azulene], the Ki in assay [2] came to 0.074 µM; at rat 5-HT7a receptor [3] it was 0.006 µM; at 5-HT2A receptor, 0.28 µM; in assay [4], 0.16 µM. Moreover, at rat 5-HT7a receptor [1] (r5-HT7a/HEK-293 cells, estimated), the Kb is approximately 0.01 µM.
In the case of `Cc1ccc(-c2c3c(nn2C(C)C)CC(C)NCC3)cc1` (centres unmarked) [Example 315, 2-Isopropyl-7-methyl-3-p-tolyl-2,4,5,6,7,8-hexahydro-1,2,6-triaza-azulene], the Ki in assay [2] turned out to be 0.3 µM; on rat 5-HT7a receptor [3], 0.012 µM; at 5-HT2A receptor, 0.009 µM; in assay [4] it was 0.003 µM.
The matching figures for `Clc1ccc(-c2nn(Cc3ccncc3)c3c2CCNCC3)cc1` [Example 316, 3-(4-Chloro-phenyl)-1-pyridin-4-ylmethyl-1,4,5,6,7,8-hexahydro-1,2,6-triaza-azulene]: 5 µM, 0.0091 µM, 0.06 µM and 0.53 µM.

The values are drawn from patent US20110040088A1, “FUSED HETEROCYCLIC COMPOUNDS” (priority 2003, published 2011).
